The results in this text go back to patent US7294629B2, “Quinazoline derivatives” (Mitsubishi Pharma Corporation, priority 2001, dated 2007).

The subject of this assay is A431 tumor. Description: In vivo antitumor effect on A431 tumor in nude mice. More on the design: species or system Balb/c female nude mice. As to the method:
(4) In vivo Antitumor Effect
Human epidermoid cancer cell A431 (5×10^6/100 μl) suspended in PBS was subcutaneously implanted on the back of Balb/c female nude mice (Balb/cAJcl-nu mouse, Clea Japan, Inc., 5-week-old when purchased) and when the average volume of the implanted tumor reached approximately about 100 mm^3 in about 7 days, the mice were allocated (4 per group) to make the average tumor volume the same for each group. The tumor volume was obtained by measuring the long diameter and the short diameter with a caliper and according to: [(short diameter)^2×long diameter/2]=tumor volume [mm^3]. A pharmaceutical agent was forcibly administered orally once a day for 14 consecutive days from the day of the allocation, and the drug was not given to the mice of the control group. The relative tumor growth rate, with the tumor volume of the day of start of the administration as 1, was calculated for the control group and the treatment group. Antitumor effect (%) of control=(relative tumor growth rate of treatment group on the last day −1)/(relative tumor growth rate of control group on the last day −1)×100

On to `C=CC(=O)Nc1cc2c(Nc3ccc(F)c(Cl)c3)ncnc2cc1C#CC(C)(C)N1CCN(C)CC1` [compound 1a.2TsOH, 1a.ditosylate], for which, under “1 mg/kg orally once a day for 14 days”, the “% of control (antitumor effect)” value turned out to be 41.0%. Moreover, for the setting “1 mg/kg orally once a day for 14 days, volume at start = 1”, the “relative tumor growth rate” value is 2.95. Also, the “antitumor effect (in words)” value (A431 tumor, oral, 14 days) is “dose-dependent antitumor effect”.
